Consider four compounds from patent publication US20220041627A1, “PRODRUGS OF ANTI-CANCER AND ANTI-AUTOIMMUNE DISEASES THERAPEUTIC AGENTS, AND METHODS OF MAKING AND USE THEREOF” (UNIVERSITY OF MARYLAND, BALTIMORE, priority 2018, published 2022).

Data set [1] has as its system human colorectal cancer cells SW480. As to the kind of experiment: Anti-proliferative activity in SW480 cells. It counts as cell-based. The following applies: 10 μM, compared to parent drug 6MP. How it is done: FIG. 12 illustrates the anticancer effects and selectivity of 6MP (10 μM), prodrugs YA6131 (10 μM) and YA6075 (10 μM), evaluated in human colorectal cancer cells SW480 and normal HEK293 cells.
Anticancer effects and selectivity of 6MP (10 μM), prodrugs YA6131 (10 μM) and YA6075 (10 μM): the anticancer activities of prodrugs YA6131 and YA6075 were evaluated in comparison to the parent drug 6MP using the human colorectal cancer cells SW480 and normal HEK293 cells (FIG. 12). […] Without wishing to be bound by any particular theory, it was reasoned that the difference of the anticancer effects of the two prodrugs were due to their different release kinetics of the two compounds in the particular cells used.

For data set [2], the system named is γH2AX. As to the kind of experiment: γH2AX immunofluorescence assay in MCF7 cells. It counts as cell-based, human. The note with it: 48 h. As to the method:
(§1) FIGS. 4A and 4B illustrate the effect of compounds 1a-1b in apoptosis. FIG. 4A: immunofluorescence of DNA cleavage protein γH2Ax was enhanced by using 5-FU and prodrugs 1a-1b. FIG. 4B: immunoblot analysis of MCF-7 cells treated with 5-FU, prodrugs 1a-1b for apoptosis markers PARP1 and Caspase 3. The cells were treated for 48 h with the indicated concentrations of compounds.
Immunohistochemistry Analysis. MCF7 cells were seeded on poly-D-lysine coated slides. Compounds were incubated with cells for 48 h. Following treatment, cells were washed once in PBS and fixed in 10% formalin for 20 min at room temperature. Methanol was used to permeabilize the cells for 10 min and PBS wash was carried out. Bovine serum albumin was used for 1 h blocking and primary antibodies for γH2AX (SCBT, #sc-517348) was incubated with the cells overnight. Fluorescent secondary antibodies were incubated with cells along with DAPI. Cells were washed trice with PBS and the slides were mounted prior to confocal imaging.
(§2) To understand the mechanism of action of prodrugs 1a-1b, the impact of the treatment of compounds 1a-1b on the γH2AX formation in MCF7 cells were determined using immunofluorescence assay (FIG. 4A). […] The effects of prodrugs 1a-1b on the PARP1 and caspase 3 cleavage in MCF7 cells were also determined using Western blots assays (FIG. 4B). […] Treatment of 5-FU and compounds 1a-1b increased the levels of cleavage of PARP1 and caspase 3 in MCF7 cells, as compared with that in the vehicle-treated controls. Therefore, prodrugs 1a-1b, similar to 5-FU, can induce MCF7 cell apoptosis, which might contribute to their pharmacological actions.

Data set [3] relates to caspase 3. Put plainly: Western blot of caspase 3 in MCF7 cells. It counts as cell-based, human. The note with it: 48 h. How it is done: as §1
(§3) Western Blot Analysis. Treated cells were washed once with PBS and lysed with RIPA lysis buffer (Santa Cruz Biotechnology, SCBT, #24948) supplemented with sodium orthovanadate, PMSF, protease and phosphatase inhibitor cocktails (Sigma Aldrich). Cell lysates were centrifuge for 15 min at 14,000×g and the supernatant was used for immunoblotting. Protein concentration was normalized for the samples and resolved on a 10-13% SDS-PAGE gel. Following transfer to nitrocellulose membrane, specific mouse primary antibodies from SCBT (PARP1 #sc-8007, caspase 3 #sc-7272) and Cell Signaling (cleaved PARP1 #9541, cleaved caspase-3 #9664) were added and incubated overnight. Secondary antibodies corresponding to the host of the primary antibodies was further incubated with the membrane and washed three times to remove excess antibodies. Odyssey Fc Imaging System (LI-COR, Lincoln, Nebr.) was used to quantify the chemiluminescent of the proteins.
as §2

Data set [4] addresses dihydropyrimidine dehydrogenase (DPD) (Homo sapiens, UniProt Q12882). The note with it: injected 5-FU, degradation into 5-FUH2; cited from earlier work.
In data set [5] the test system is PARP1. Put plainly: Western blot of PARP1 in MCF7 cells. The data set is classed as cell-based, human. The following applies: 48 h. As to the method: as §1, §3, §2
A general note: A western blot detects proteins with antibodies after separation by electrophoresis.

Data set [6] deals with wild-type C57BL/6 male mice. As to the kind of experiment: Acute toxicity in mice. The following applies: 100 mg/kg i.p. every other day for 15 days, C57BL/6 male mice. It counts as in vivo. As to the method:
FIGS. 5A and 5B illustrate the survival rate (FIG. 5A) and body weight (FIG. 5B) curves of the various groups of mice. […] Mice were treated every other day by intraperitoneal (i.p.) injection for 15 days, the survival and body weights of the mice were recorded after treatment.
Mice were treated every other day by intraperitoneal (i.p.) injection for 15 days, the survival and body weights of the mice were recorded after treatment.

The test system of data set [7] is breast cancer MCF7 cells. As to the kind of experiment: Cell viability (CCK8) in breast cancer MCF7 cells. The data set is classed as cell-based, human. The note with it: different concentrations, compared with parent drug 5-FU. As to the method: FIGS. 2A and 2B illustrate the anticancer effects and selectivity of 5-FU and compounds 1a-1c. Cell viability was analyzed after the breast cancer MCF7 cells (FIG. 2A) and normal MEC1 cells (FIG. 2B) were treated with 5-FU or compounds 1a-1c at different concentrations. Data are presented as mean±SD, n=4.
Cell Counting Kit-8 (CCK8, Dojingo) was used to carry out the cytotoxicity assessment of the prodrugs. Seeded cells were treated with varying compound concentrations for 48-72 h and the CCK8 kit was used to measure the cytotoxicity. For NAC experiments, this ROS scavenger was pre-incubated with the cells for 2 h and then co-incubated with the prodrugs for additional 48 hours unless otherwise noted.
The anticancer effects of new compounds 1a and 1b were tested using the breast cancer MCF7 cells and normal MEC1 cells (FIGS. 2A and 2B). […] These differential killing results highlight the specificity of new prodrugs 1a-1b for cancer cells over normal cells. […] To further verify the role of ROS in the drug release process, the MTT assays was performed, using MCF7 cells pretreated with the ROS scavenger N-Acetyl-Cysteine (NAC).

Setting [8] is: compared to vehicle-treated cells.
Setting [9] is: compared to vehicle-treated controls.

Each structure is given as a SMILES string.

Chain of dihydropyrimidine dehydrogenase (DPD) (Q12882 4-1025): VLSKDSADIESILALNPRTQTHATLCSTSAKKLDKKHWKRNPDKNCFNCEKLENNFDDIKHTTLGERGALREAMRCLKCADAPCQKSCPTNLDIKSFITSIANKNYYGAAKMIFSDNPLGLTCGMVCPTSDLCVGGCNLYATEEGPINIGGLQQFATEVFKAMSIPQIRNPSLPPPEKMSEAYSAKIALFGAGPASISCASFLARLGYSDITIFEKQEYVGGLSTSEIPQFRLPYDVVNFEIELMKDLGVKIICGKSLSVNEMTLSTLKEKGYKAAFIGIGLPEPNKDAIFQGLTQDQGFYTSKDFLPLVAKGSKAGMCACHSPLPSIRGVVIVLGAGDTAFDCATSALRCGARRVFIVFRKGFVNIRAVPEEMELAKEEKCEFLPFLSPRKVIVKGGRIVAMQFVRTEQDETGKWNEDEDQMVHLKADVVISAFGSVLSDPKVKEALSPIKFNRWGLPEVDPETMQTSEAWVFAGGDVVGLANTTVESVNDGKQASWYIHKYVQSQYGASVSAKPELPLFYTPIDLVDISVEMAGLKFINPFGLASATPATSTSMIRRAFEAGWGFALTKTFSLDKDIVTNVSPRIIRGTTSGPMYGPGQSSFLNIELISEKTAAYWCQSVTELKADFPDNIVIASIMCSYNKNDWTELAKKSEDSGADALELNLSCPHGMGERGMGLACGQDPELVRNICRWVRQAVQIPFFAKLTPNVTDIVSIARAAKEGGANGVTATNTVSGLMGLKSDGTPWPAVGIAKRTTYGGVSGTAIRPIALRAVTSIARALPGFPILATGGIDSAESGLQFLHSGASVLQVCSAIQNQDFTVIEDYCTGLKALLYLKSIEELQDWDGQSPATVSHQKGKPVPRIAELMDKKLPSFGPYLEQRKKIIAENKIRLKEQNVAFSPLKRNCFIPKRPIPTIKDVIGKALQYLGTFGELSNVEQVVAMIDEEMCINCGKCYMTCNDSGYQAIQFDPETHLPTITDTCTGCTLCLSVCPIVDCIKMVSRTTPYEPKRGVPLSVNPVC

`CC1(C)OB(c2ccc(Cn3cnc4c(S)ncnc43)cc2)OC1(C)C` [YA6075, 9-(4-(4,4,5,5-Tetramethyl-1,3,2-dioxaborolan-2-yl)benzyl)-9H-purine-6-thiol]: the anti-proliferative activity entry in data set [1] is reported as “reduced effect”.

As for `O=c1[nH]cc(F)c(=O)[nH]1` [Compound 5-FU, 5-fluorouracil, reference compound], the γH2AX formation entry in data set [2] is reported as “enhanced”. Moreover, the “expression level of caspase 3” value in data set [3] (setting [8]) is on record as “significantly reduced”. Moreover, the “level of cleavage of caspase 3” value in data set [3] (setting [9]) was “increased”. Besides, in data set [4], the “share of injected doses deactivated by DPD” value is given as “more than 85%”. The “expression level of PARP1” value in data set [5] (setting [8]) was “significantly reduced”. For the same compound, in data set [5] (setting [9]), the “level of cleavage of PARP1” value is recorded as “increased”. The “survival / animal death” value in data set [6] is reported as “killed all mice on the twelfth day”.

Take `CC1(C)OB(c2ccc(CSc3ncnc4[nH]cnc34)cc2)OC1(C)C` [YA6131]: in data set [1], the anti-proliferative activity result was “similarly potent anti-proliferative activity as compared to 6MP”.

Regarding `O=c1[nH]c(=O)n(Cc2ccccc2)cc1F` [Compound 1c, 1-Benzyl-5-fluoropyrimidine-2,4(1H,3H)-dione], the “antiproliferative activity / anticancer effects” value in data set [7] is recorded as “no obvious antiproliferative effects”.
